Assay results reported in patent US20130130306A1, “ZN (II) BASED COLORIMETRIC SENSOR AND PROCESS FOR THE PREPARATION THEREOF” (COUNCIL OF SCIENTIFIC & INDUSTRIAL RESEARCH, priority 2010, published 2013).

Key:
[1] = UV-vis spectral response and spectrophotometric titration with ADP; format: binding
Method: (§1) In order to examine the binding behaviour of the Zn-complex (L.Zn) (Scheme 1, Formula 1A) to various important anions (like ATP, CTP, ADP, AMP, PPi, H2PO4^−, SO4^2−, CH3CO2^−, I^−, Br^−, Cl^− and F^−) the following experiment was conducted. A solution (˜21 mM) for of sodium salts of ATP, CTP, ADP, AMP, PPi, H2PO4^−, SO4^−, CH3CO2^−, I^−, Br^−, Cl^−, and F^− were prepared using respective salt in 10 mM HEPES buffer solutions (pH 7.2) and was stored for use. Further, a solution (44.35 μM) of the compound L.Zn (Scheme 1, Formula 1A) was prepared using doubly-distilled and deionized water and stored. These stored solutions were used on the day of preparation of the solution for experiment. […]
A solution of L.Zn (Scheme 1, Formula 1A) (8.87 μM) in aqueous medium was treated with excess amount of ˜500 μM of different phosphate anions like H2PO4^−, PPi, AMP, ADP, ATP and CTP. […] Thus L.Zn (Scheme 1, Formula 1A) can bind ATP selectively among various phosphate anions and the color change associated with the binding of ATP can be detected through naked eye (FIG. 2). […]

[2] = Absorption and 31P NMR study of binding to various anions
Method: as §1

## CN(C)c1ccc(N=Nc2ccc(S(=O)(=O)N3CCCNCCNCCCNCC3)cc2)cc1.O=[N+]([O-])[O-].O=[N+]([O-])[O-].[Zn+2] [L.Zn]
[1]; L.Zn 8.87 μM in aqueous medium, ~500 μM anion
  color change on addition of ADP (naked eye): Slight color change
[1]; spectrophotometric titration, pH 7.2, 10 mM HEPES, 25° C.
  binding constant for the formation of the complex L.Zn-ADP: 142 (±15) M^−1
[2]; 31P NMR and spectral data
  observed binding preference / trend in binding affinity: ATP>>CTP>ADP>>AMP
[2]; 2000 equivalents of other anions, pH 7.2
  change of absorption spectrum on addition of other anions: no change was observed
